Experimental data as given in US12295396B2, “Antagonists of T2R54 and compositions and uses thereof” (Firmenich Incorporated, priority 2018, dated 2025).

Molecular target: T1, hT2R54 (Homo sapiens, UniProt P59534)
T1 construct: expressed in transfected cells; it overexpresses a promiscuous G protein
T1 sequence (P59534 1-338): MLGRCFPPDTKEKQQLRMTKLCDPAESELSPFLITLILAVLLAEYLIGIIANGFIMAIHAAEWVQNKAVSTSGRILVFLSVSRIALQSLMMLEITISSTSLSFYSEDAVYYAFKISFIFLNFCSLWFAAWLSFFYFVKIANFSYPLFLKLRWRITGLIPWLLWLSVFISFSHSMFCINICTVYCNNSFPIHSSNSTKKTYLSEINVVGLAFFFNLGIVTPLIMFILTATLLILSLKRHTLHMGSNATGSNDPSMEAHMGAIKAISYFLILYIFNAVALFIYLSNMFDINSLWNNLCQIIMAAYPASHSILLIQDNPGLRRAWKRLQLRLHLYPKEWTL
Assay: Cell-based assay for measuring hT2R54 inhibition (FLIPR calcium, Fluo4AM, acetaminophen as bitter agonist)
Conditions: Table 2; cells stably expressing hT2R54 and a promiscuous G protein; read-out: hT2R54 IC50
Procedure, shortened: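 Cells stably co-expressing hT2R54 and a promiscuous G protein were loaded with Fluo4AM and given acetaminophen dose series, alone or with fixed concentrations of test compound. On FLIPR, baseline was recorded for 10 s and fluorescence for 3 min after addition. IC50 is the concentration halving the acetaminophen-alone response.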

Row | SMILES | IC50 [nM]
1 | COc1ccc(C(=O)N2CCN(CC(=O)Nc3cc4c(cc3C(C)=O)OCO4)CC2)cc1 [compound 47] | 21
2 | CC(=O)c1cc2c(cc1NC(=O)CN1CCN(C(=O)C(C)(C)C)CC1)OCO2 [compound 13] | 23
3 | CC(=O)c1cc2c(cc1NC(=O)CN1CCN(C(=O)c3cnon3)CC1)OCO2 [compound 75] | 100
4 | CC(=O)c1cc2c(cc1NC(=O)CN1CCN(C(=O)c3ccoc3)CC1)OCO2 [compound 79] | 30
5 | COc1cc2c(cc1NC(=O)CN1CCN(C(=O)Cc3ccc(O)cc3)CC1)OCO2 [compound 373] | 700
6 | CC(=O)c1cc2c(cc1NC(=O)CN1CCN(C(=O)c3ccon3)CC1)OCO2 [compound 70] | 20
7 | CC(=O)c1cc2c(cc1NC(=O)CN1CCN(C(=O)OC(C)C)CC1)OCO2 [compound 30] | 40
8 | CC(=O)c1cc2c(cc1NC(=O)CN1CCN(C(=O)c3ccco3)CC1)OCO2 [compound 36] | 4
9 | CC(=O)c1cc2c(cc1NC(=O)CN1CCN(C(=O)c3nc(C)oc3C)CC1)OCO2 [compound 76] | 70
10 | COc1cc2c(cc1NC(=O)CN1CCN(C(=O)Cc3ccccc3)CC1)OCO2 [compound 370] | 400
11 | COc1cc2c(cc1NC(=O)CN1CCN(C(=O)c3cccc(O)c3)CC1)OCO2 [compound 93] | 430
12 | COc1cc2c(cc1NC(=O)CN1CCN(C(=O)Cc3ccc(F)cc3)CC1)OCO2 [compound 371] | 900
13 | COc1cc2c(cc1NC(=O)CN1CCN(C(=O)c3ccccc3O)CC1)OCO2 [compound 92] | 440

Continued, values first:

Row | IC50 [nM] | SMILES
14 | 1900 | COc1cc2c(cc1NC(=O)CN1CCN(C(=O)C3CCCO3)CC1)CCC2 (stereo not drawn) [compound 354]
15 | 439 | COC(=O)c1cc2c(cc1NC(=O)CN1CCN(C(=O)CC3CCCO3)CC1)OCO2 (stereo not drawn) [compound 351]
16 | 1800 | COc1cc2c(cc1NC(=O)CN1CCN(C(=O)C3CCOC3)CC1)OCO2 (stereo not drawn) [compound 406]
17 | 40 | CC(=O)c1cc2c(cc1NC(=O)CN1CCN(C(=O)c3cccnc3)CC1)OCCO2 [compound 326]
18 | 1600 | COCC(C(=O)Nc1cc2c(cc1C(C)=O)OCO2)N1CCN(C(=O)[C@H]2CCCO2)CC1 (stereo partly drawn) [compound 320]
19 | 40 | CC(=O)c1cc2c(cc1NC(=O)CN1CCN(C(=O)c3cc(C)on3)CC1)OCO2 [compound 300]
20 | 244 | CCCC(=O)N1CCN(CC(=O)Nc2cc3c(cc2C(=O)OC)OCO3)CC1 [compound 349]
21 | 108 | CC(=O)c1cc2c(cc1NC(=O)CN1CCN(C(=O)c3cocn3)CC1)OCO2 [compound 286]
22 | 50 | CC(=O)c1cc2c(cc1NC(=O)CN1CCN(C(=O)c3cnn[nH]3)CC1)OCCO2 [compound 329]
23 | 200 | CC(=O)c1cc2c(cc1NC(=O)CN1CCN(C(=O)c3c[nH]c(C)n3)CC1)OCO2 [compound 309]
24 | 130 | CC(=O)c1cc2c(cc1NC(=O)CN1CCN(C(=O)[C@H]3CCCO3)CC1)OCO2 [compound 315]
25 | 800 | CC(=O)c1cc2c(cc1NC(=O)CN1CCN(C(=S)Nc3ccccc3)CC1)OCO2 [compound 310]
26 | 630 | COc1cc2c(cc1NC(=O)CN1CCN(C(=O)c3ccc(CO)o3)CC1)OCO2 [compound 398]
27 | 60 | CC(=O)c1cc2c(cc1NC(=O)CN1CCN(C(=O)c3c[nH]nn3)CC1)OCO2 [compound 303]
28 | 83 | COCc1ccc(C(=O)N2CCN(CC(=O)Nc3cc4c(cc3C(=O)OC)OCO4)CC2)o1 [compound 347]
29 | 50 | CC(=O)c1cc2c(cc1NC(=O)CN1CCN(C(C)=O)CC1)OCCO2 [compound 336]
30 | 600 | COc1cc2c(cc1NC(=O)CN1CCN(C(=O)c3cccc(CO)c3)CC1)OCO2 [compound 383]
31 | 6 | CC(=O)c1cc2c(cc1NC(=O)CN1CCN(C(=O)c3ccc(Cn4cccn4)o3)CC1)OCO2 [compound 292]

Same assay, conditions: Table 4; cells stably expressing hT2R54 and a promiscuous G protein; read-out: hT2R54 IC50

Row | SMILES | IC50 [nM]
32 | CC(=O)c1cc2c(cc1NC(=O)CN(C)CCC(=O)N(C)C)OCO2 [compound 134] | 960
33 | COc1cc2c(cc1NC(=O)CN1CCN(C(=O)OC(C)(C)C)CC1)OCO2 [compound 148] | < 2000
34 | CC(=O)c1cc2c(cc1NC(=O)CN(C)C1CCCCC1)OCO2 [compound 130] | 312
35 | CCNC(=O)CCN(C)CC(=O)Nc1cc2c(cc1C(C)=O)OCO2 [compound 135] | 500
36 | COc1cc2c(cc1NC(=O)CN1CCCC(O)C1)OCO2 (stereo not drawn) [compound 144] | < 2000

The next lines start with the values.

Row | IC50 [nM] | SMILES
37 | 1000 | CC(=O)c1cc2c(cc1NC(=O)CN1CCOc3ccccc31)OCO2 [compound 423]
38 | 183 | CC(=O)c1cc2c(cc1NC(=O)CN1CCC(C)CC1)OCO2 [compound 418]
39 | 220 | CC(=O)c1cc2c(cc1NC(=O)C(C)N1CCC(O)CC1)OCCO2 (stereo not drawn) [compound 433]
40 | 248 | COC(=O)c1cc2c(cc1NC(=O)CN1CCC(O)CC1)OCO2 [compound 434]

Same assay, conditions: Table 6; cells stably expressing hT2R54 and a promiscuous G protein; read-out: hT2R54 IC50

Row | IC50 [nM] | SMILES
41 | 90 | CC(=O)c1cc2c(cc1NC(=O)CNC1CCN(C(=O)c3cccnc3)CC1)OCO2 [compound 179]
42 | 450 | CC(=O)c1cc2c(cc1NC(=O)CN1CCC(NC(=O)c3ccncc3)CC1)OCO2 [compound 176]
43 | 270 | CC(=O)c1cc2c(cc1NC(=O)CN1CCC(NC(=O)c3ccccn3)CC1)OCO2 [compound 174]
44 | 264 | CC(=O)NC1CCN(CC(=O)Nc2cc3c(cc2C(C)=O)OCO3)CC1 [compound 166, 2-(4-Acetamidopiperidin-1-yl)-N-(6-acetylbenzo[d][1,3]dioxol-5-yl)acetamide]
45 | 110 | CC(=O)c1cc2c(cc1NC(=O)CN1CCC(NC(=O)c3cccs3)CC1)OCO2 [compound 173]
46 | 110 | CC(=O)c1cc2c(cc1NC(=O)CN1CCC(NC(=O)c3cccnc3)CC1)OCO2 [compound 175]

Same assay, conditions: Table 7; cells stably expressing hT2R54 and a promiscuous G protein; read-out: hT2R54 IC50

Row | IC50 [nM] | SMILES
47 | 61 | CC(=O)c1cc2c(cc1NC(=O)CN(C)C1CCN(C(=O)c3ccco3)CC1)OCO2 [compound 183, N-(6-Acetylbenzo[d][1,3]dioxol-5-yl)-2-((1-(furan-2-carbonyl)piperidin-4-yl)(methyl)amino)acetamide]
48 | 40 | CCCS(=O)(=O)N1CCCC(N(C)CC(=O)Nc2cc3c(cc2C(C)=O)OCO3)C1 (stereo not drawn) [compound 190]

Same assay, conditions: Table 8; read-out: hT2R54 IC50

Row | SMILES | IC50 [nM]
49 | CC(=O)c1cc2c(cc1NC(=O)CC1CCN(C(=O)c3cccs3)CC1)OCO2 [compound 199, N-(6-Acetylbenzo[d][1,3]dioxol-5-yl)-2-(1-(thiophene-2-carbonyl)piperidin-4-yl)acetamide] | 12
50 | CCOC(=O)N1CCCC(CC(=O)Nc2cc3c(cc2C(C)=O)OCO3)C1 (stereo not drawn) [compound 213] | 50
51 | CC(=O)c1cc2c(cc1NC(=O)CC1CCCN(C(=O)CC(C)(C)C)C1)OCO2 (stereo not drawn) [compound 207] | 360
52 | CC(=O)c1cc2c(cc1NC(=O)CC1CCCN(C(=O)C3CCCCO3)C1)OCO2 (stereo not drawn) [compound 211] | 18

Next, values leading:

Row | IC50 [nM] | SMILES
53 | 240 | CC(=O)c1cc2c(cc1NC(=O)CC1CN(C(=O)c3ccco3)CCO1)OCO2 (stereo not drawn) [compound 231]
54 | 130 | CC(=O)c1cc2c(cc1NC(=O)CC1CCN(C(=O)[C@H]3CCC(=O)O3)CC1)OCO2 [compound 474]
55 | 490 | CC(=O)c1cc2c(cc1NC(=O)CC1CCN(C(=O)Cc3ccccc3)CC1)OCO2 [compound 247]
56 | 150 | CC(=O)c1cc2c(cc1NC(=O)CC1CN(C(=O)C3CCCO3)CCO1)OCO2 (stereo not drawn) [compound 510]
57 | 300 | CC(=O)c1cc2c(cc1NC(=O)CC1CCN(C(=O)[C@@H]3CCCO3)CC1)OCO2 [compound 472]
58 | > 10000 | COc1cc2c(cc1NC(=O)CC1CCN(C(C)=O)CC1)OCO2 [compound 496]
59 | 480 | CC(=O)c1cc2c(cc1NC(=O)CC1CCCN(C(=O)c3ccccc3O)C1)OCO2 (stereo not drawn) [compound 217]
60 | 958 | CC(=O)c1cc2c(cc1NC(=O)CC1CCN(C(=O)C(C)C)C1)OCO2 (stereo not drawn) [compound 261]
61 | 374 | CC(=O)c1cc2c(cc1NC(=O)CC1CCN(C(=O)CC(C)C)C1)OCO2 (stereo not drawn) [compound 263]
62 | 300 | CC(=O)c1cc2c(cc1NC(=O)CC1CCN(C(=O)[C@H]3CCCO3)CC1)OCO2 [compound 471]
63 | 159 | CC(=O)c1cc2c(cc1NC(=O)CC1CCCN(C(=O)c3nc(C)c[nH]3)C1)OCO2 (stereo not drawn) [compound 504]
64 | 300 | CC(=O)c1cc2c(cc1NC(=O)CC1CCN(C(=O)c3ncn[nH]3)CC1)OCO2 [compound 460]
65 | 180 | CC(=O)c1cc2c(cc1NC(=O)CC1CN(C(C)=O)CCO1)OCO2 (stereo not drawn) [compound 509]
66 | 160 | CCOC(=O)N1CCOC(CC(=O)Nc2cc3c(cc2C(C)=O)OCO3)C1 (stereo not drawn) [compound 230]
67 | 1570 | COc1ccc(CC(=O)N2CCC(CC(=O)Nc3cc4c(cc3C(C)=O)OCO4)CC2)cc1 [compound 257]
68 | 300 | CC(=O)c1cc2c(cc1NC(=O)CC1CCN(C(=O)CC3CCCO3)CC1)OCCO2 (stereo not drawn) [compound 475]
69 | 380 | COc1cccc(CC(=O)N2CCC(CC(=O)Nc3cc4c(cc3C(C)=O)OCO4)CC2)c1 [compound 256]

Same assay, conditions: Table 9; read-out: hT2R54 IC50

Row | IC50 [nM] | SMILES
70 | 704 | CC(=O)c1cc2c(cc1NC(=O)Cc1ccsc1)OCO2 [compound 275]
71 | 454 | CC(=O)c1cc2c(cc1NC(=O)Cc1cccnc1)OCO2 [compound 273]
72 | 1720 | CC(=O)c1cc2c(cc1NC(=O)Cc1c(C)nn(C)c1C)OCO2 [compound 280]
